Results published in US7795228B2, “Spiroheterocyclic glycosides and methods of use” (Theracos, Inc., priority 2006, dated 2010).

What was measured:
human SGLT1 = target: T1, human SGLT1 (Homo sapiens, UniProt P13866); experiment: Methyl-α-D-[U-14C]glucopyranoside uptake assay, human SGLT1 expressing cells; format: cell-based; conditions: COS-7 cells expressing human SGLT1, 2 h incubation
T1 construct: Full-length human SGLT1 cDNA on pDream2.1 expression vector was obtained from GenScript Corporation; host or cells: COS-7 cells
T1 sequence (P13866 1-664): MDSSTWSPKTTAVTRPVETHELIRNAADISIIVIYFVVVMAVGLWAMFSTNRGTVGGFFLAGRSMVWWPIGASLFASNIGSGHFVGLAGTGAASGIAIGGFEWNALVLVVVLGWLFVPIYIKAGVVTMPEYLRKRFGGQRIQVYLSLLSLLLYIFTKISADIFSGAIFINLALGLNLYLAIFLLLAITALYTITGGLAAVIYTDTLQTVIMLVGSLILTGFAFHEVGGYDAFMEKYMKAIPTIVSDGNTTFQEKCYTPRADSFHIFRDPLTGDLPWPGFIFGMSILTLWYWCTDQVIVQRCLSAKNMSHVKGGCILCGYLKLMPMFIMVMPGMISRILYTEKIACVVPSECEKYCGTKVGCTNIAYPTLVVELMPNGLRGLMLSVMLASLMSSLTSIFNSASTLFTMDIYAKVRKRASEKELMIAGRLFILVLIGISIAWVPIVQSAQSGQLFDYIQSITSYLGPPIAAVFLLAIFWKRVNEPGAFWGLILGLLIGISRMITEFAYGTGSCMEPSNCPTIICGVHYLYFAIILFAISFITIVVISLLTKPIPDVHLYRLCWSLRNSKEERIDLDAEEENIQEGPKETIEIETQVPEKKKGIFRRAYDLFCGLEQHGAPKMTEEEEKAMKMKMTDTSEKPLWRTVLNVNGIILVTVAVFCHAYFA
Method: Full-length human SGLT1 cDNA on pDream2.1 expression vector was obtained from GenScript Corporation and propagated in Escherichia coli strain DH5α using Luria-Bertani (LB) medium containing ampicillin. Plasmid DNA was isolated using the QIAGEN Plasmid Midi Kit (QIAGEN Inc.). […] Transfected cells were stored in DMEM containing 10% dimethyl sulfoxide (DMSO) at −80° C.
(§1) Cells expressing SGLT1 or SGLT2 were seeded on 96-well ScintiPlate scintillating plates (PerkinElmer, Inc.) in DMEM containing 10% FBS (1×10^5 cells per well in 100 μl medium) incubated at 37° C. under 5% CO2 for 48 h prior to the assay. Cells were washed twice with 150 μl of either sodium buffer (137 mM NaCl, 5.4 mM KCl, 2.8 mM CaCl2, 1.2 mM MgCl2, 10 mM tris(hydroxymethyl)aminomethane/N-2-hydroxyethylpiperazine-N′-ethanesulfonic acid [Tris/Hepes], pH 7.2) or sodium-free buffer (137 mM N-methyl-glucamine, 5.4 mM KCl, 2.8 mM CaCl2, 1.2 mM MgCl2, 10 mM Tris/Hepes, pH 7.2). Test compound in 50 μl each of sodium or sodium-free buffer containing 40 μCi/ml methyl-α-D-[U-^14C] glucopyranoside (Amersham Biosciences/GE Healthcare), either with (symbols in parentheses) or without (symbols without parentheses) 25% human serum, was added per well of a 96-well plate and incubated at 37° C. with shaking for either 2 h (SGLT1 assay) or 1.5 h (SGLT2 assay). Cells were washed twice with 150 μl of wash buffer (137 mM N-methylglucamine, 10 mM Tris/Hepes, pH 7.2) and methyl-α-D-[U-^14C]glucopyranoside uptake was quantitated using a TopCount scintillation counter (PerkinElmer, Inc.). Sodium-dependent glucopyranoside uptake was measured by subtracting the values obtained with sodium-free buffer from those obtained using sodium buffer (average of triplicate determinations).

human SGLT2 = target: T2, human SGLT2 (Homo sapiens, UniProt P31639); experiment: Methyl-α-D-[U-14C]glucopyranoside uptake assay, cells stably expressing human SGLT2; format: cell-based; conditions: HEK293.ETN cells expressing human SGLT2, 1.5 h incubation
T2 construct: A full-length cDNA clone expressing human SGLT2 (GenScript Corporation)
T2 sequence (P31639 1-672): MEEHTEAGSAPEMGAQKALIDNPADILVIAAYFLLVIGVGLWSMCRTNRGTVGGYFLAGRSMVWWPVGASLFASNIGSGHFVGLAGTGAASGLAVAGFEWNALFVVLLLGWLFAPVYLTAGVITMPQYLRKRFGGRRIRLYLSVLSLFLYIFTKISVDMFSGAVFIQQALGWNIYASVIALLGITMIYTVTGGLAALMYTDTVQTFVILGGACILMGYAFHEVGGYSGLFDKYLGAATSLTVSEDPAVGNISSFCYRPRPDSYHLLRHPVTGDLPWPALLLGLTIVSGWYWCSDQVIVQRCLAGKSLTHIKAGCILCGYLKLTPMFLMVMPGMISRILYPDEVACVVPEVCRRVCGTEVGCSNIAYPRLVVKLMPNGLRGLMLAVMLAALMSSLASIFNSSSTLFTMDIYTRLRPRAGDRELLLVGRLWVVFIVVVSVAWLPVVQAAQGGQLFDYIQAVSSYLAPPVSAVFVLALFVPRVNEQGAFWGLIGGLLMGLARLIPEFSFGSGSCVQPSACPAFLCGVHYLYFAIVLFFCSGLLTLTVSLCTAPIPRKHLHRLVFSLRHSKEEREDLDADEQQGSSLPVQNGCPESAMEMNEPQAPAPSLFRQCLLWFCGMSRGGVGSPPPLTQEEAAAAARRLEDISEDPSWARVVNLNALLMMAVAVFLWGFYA
From the text: A full-length cDNA clone expressing human SGLT2 (GenScript Corporation) was subcloned into Hind III and Not I sites of pEAK15 expression vector. Clones harboring the cDNA inserts were identified by restriction analysis.
Plasmid containing human SGLT2 was linearized with Nsi I and purified by agarose gel electrophoresis. Using Lipofectamine 2000 Transfection Reagent (Invitrogen Corporation), DNA was transfected into HEK293.ETN cells and cultured in Dulbecco's Modified Eagle Medium (DMEM) containing 10% fetal bovine serum (FBS) at 37° C. under 5% CO2 for 24 h. Transfectants were selected in the same growth medium supplemented with puromycin (Invitrogen Corporation) for two weeks. Puromycin-resistant cells were recovered and seeded on a fresh 96-well plate (single cell per well) and cultured in the presence of puromycin until cells became confluent. Puromycin-resistant clones were evaluated for SGLT2 activity in the methyl-α-D-[U-^14C]glucopyranoside uptake assay described below.
as §1

[1] = without human serum (symbols without parentheses)
[2] = with 25% human serum (symbols in parentheses)

Structure (SMILES)	IC50 (human SGLT1; [1])	IC50 (human SGLT2; [1])	IC50 (human SGLT1; [2])	IC50 (human SGLT2; [2])
CCc1ccc(Cc2cc3c(cc2Cl)OC[C@]32O[C@H](CO)[C@@H](O)[C@H](O)[C@H]2O)cc1 [Compound 30, (2′R,3′R,4′S,5′S,6′R)-6-chloro-5-(4-ethylbenzyl)-6′-(hydroxymethyl)-3′,4′,5′,6′-tetrahydro-2H-spiro[benzofuran-3,2′-pyran]-3′,4′,5′-triol]	–	–	10 to 100 µM	< 1000 nM
CCc1ccc(Cc2cc3c(cc2Cl)OCCC[C@]32O[C@H](CO)[C@@H](O)[C@H](O)[C@H]2O)cc1 [Compound 38, (2′S,3′R,4′S,5′S,6′R)-8-chloro-7-(4-ethylbenzyl)-6′-(hydroxymethyl)-3,3′,4,4′,5′,6′-hexahydro-2H-spiro[benzo[b]oxepine-5,2′-pyran]-3′,4′,5′-triol]	–	–	10 to 100 µM	< 1000 nM
CCc1ccc(Cc2cc3c(cc2Cl)OC(C)(CO)C[C@]32O[C@H](CO)[C@@H](O)[C@H](O)[C@H]2O)cc1 (stereo partly drawn) [Compound 52, (2′S,3′R,4′S,5′S,6′R)-7-chloro-6-(4-ethylbenzyl)-2,6′-bis(hydroxymethyl)-2-methyl-3′,4′,5′,6′-tetrahydrospiro[chroman-4,2′-pyran]-3′,4′,5′-triol]	–	–	> 100 µM	< 1000 nM
CCc1ccc(Cc2cc3c(cc2Cl)OC(C)(C)C[C@]32O[C@H](CO)[C@@H](O)[C@H](O)[C@H]2O)cc1 [Compound 57, (2′S,3′R,4′S,5′S,6′R)-7-chloro-6-(4-ethylbenzyl)-6′-(hydroxymethyl)-2,2-dimethyl-3′,4′,5′,6′-tetrahydrospiro[chroman-4,2′-pyran]-3′,4′,5′-triol]	–	–	> 100 µM	< 1000 nM

Results, then the compound that gave them:

IC50 (human SGLT1; [1])	IC50 (human SGLT2; [1])	IC50 (human SGLT1; [2])	IC50 (human SGLT2; [2])	Structure (SMILES)
> 100 µM	< 1000 nM	–	–	CCc1ccc(Cc2ccc3c(c2)[C@]2(CCO3)O[C@H](CO)[C@@H](O)[C@H](O)[C@H]2O)cc1 [Compound 12, (2′S,3′R,4′S,5′S,6′R)-6-(4-ethylbenzyl)-6′-(hydroxymethyl)-3′,4′,5′,6′-tetrahydrospiro[chroman-4,2′-pyran]-3′,4′,5′-triol]
10 to 100 µM	< 1000 nM	–	–	CCc1ccc(Cc2cc3c(cc2Cl)OCC[C@]32O[C@H](CO)[C@@H](O)[C@H](O)[C@H]2O)cc1 [Compound 20, (2′S,3′R,4′S,5′S,6′R)-7-chloro-6-(4-ethylbenzyl)-6′-(hydroxymethyl)-3′,4′,5′,6′-tetrahydrospiro[chroman-4,2′-pyran]-3′,4′,5′-triol]
> 100 µM	< 1000 nM	–	–	CCc1ccc(Cc2cc3c(cc2Cl)OC(OC)C[C@]32O[C@H](CO)[C@@H](O)[C@H](O)[C@H]2O)cc1 (stereo partly drawn) [Compound 43, (2′S,3′R,4′S,5′S,6′R)-7-chloro-6-(4-ethylbenzyl)-6′-(hydroxymethyl)-2-methoxy-3′,4′,5′,6′-tetrahydrospiro[chroman-4,2′-pyran]-3′,4′,5′-triol]
> 100 µM	< 1000 nM	–	–	CCc1ccc(Cc2cc3c(cc2Cl)OC(O)C[C@]32O[C@H](CO)[C@@H](O)[C@H](O)[C@H]2O)cc1 (stereo partly drawn) [Compound 44, (2′S,3′R,4′S,5′S,6′R)-7-chloro-6-(4-ethylbenzyl)-6′-(hydroxymethyl)-3′,4′,5′,6′-tetrahydrospiro[chroman-4,2′-pyran]-2,3′,4′,5′-tetraol]
–	–	> 100 µM	< 1000 nM	CCc1ccc(Cc2cc3c(cc2Cl)OC(C)C[C@]32O[C@H](CO)[C@@H](O)[C@H](O)[C@H]2O)cc1 (stereo partly drawn) [Compound 47, (2′S,3′R,4′S,5′S,6′R)-7-chloro-6-(4-ethylbenzyl)-6′-(hydroxymethyl)-2-methyl-3′,4′,5′,6′-tetrahydrospiro[chroman-4,2′-pyran]-3′,4′,5′-triol]
